Several values for one entry are separate records, joined by “and”; a condition that tells them apart may be missing. Equal values may be shown once.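 Method: 48-hour compound exposure of cells in 96-well plates, five concentrations, linear interpolation of endpoints. GI50 is the concentration that inhibits growth by half.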 Activity calls are given as the source filed them. Cut-off read from the data, not from the text of the source: active = GI50 up to about 1.1 µM and inactive = higher.
How the values were obtained:
Test in all cases: NCI anticancer screen, dose series, 48 h
786-0 = system: 786-0
NCI-H460 = system: NCI-H460
NCI-H226 = system: NCI-H226
DMS-273 = system: DMS-273
SK-MEL-2 = system: SK-MEL-2
KM12 = system: KM12
M19-MEL = system: M19-MEL
KM-20L2 = system: KM-20L2
SW-620 = system: SW-620
HCC 2998 = system: HCC 2998
A549 = system: A549
M14 = system: M14
UACC-257 = system: UACC-257
SN12C = system: SN12C
OVCAR-8 = system: OVCAR-8
SNB-75 = system: SNB-75
IGROV-1 = system: IGROV-1
K562 = system: K562
LOX IMVI = system: LOX IMVI
SK-OV-3 = system: SK-OV-3
Malme-3M = system: Malme-3M
ACHN = system: ACHN
HOP-62 = system: HOP-62
UO-31 = system: UO-31
OVCAR-4 = system: OVCAR-4
SK-MEL-28 = system: SK-MEL-28
CAKI-1 = system: CAKI-1
HT-29 = system: HT-29
RPMI-8226 = system: RPMI-8226
UACC-62 = system: UACC-62
SNB-78 = system: SNB-78
HOP-18 = system: HOP-18
LXFL 529 = system: LXFL 529
RXF 631 = system: RXF 631
HL-60 = system: HL-60
EKVX = system: EKVX
HCT-116 = system: HCT-116
MOLT-4 = system: MOLT-4
HCT-15 = system: HCT-15
SF-539 = system: SF-539
A498 = system: A498
OVCAR-3 = system: OVCAR-3
NCI-H522 = system: NCI-H522
DLD-1 = system: DLD-1
CCRF-CEM = system: CCRF-CEM
SNB-19 = system: SNB-19
SF-295 = system: SF-295
DMS-114 = system: DMS-114
SF-268 = system: SF-268
COLO 205 = system: COLO 205
RXF 393 = system: RXF 393
U-251 = system: U-251
SK-MEL-5 = system: SK-MEL-5
TK-10 = system: TK-10
OVCAR-5 = system: OVCAR-5
NCI-H23 = system: NCI-H23
XF498 = system: XF498
SR = system: SR

O=C(NCCCCCCCCCCCCNC(=O)c1cnc2ccccc2n1)c1cnc2ccccc2n1
GI50 (786-0): 31.7 µM (inactive)
GI50 (NCI-H460): 48.1 µM (inactive)
GI50 (NCI-H226): 48 µM (inactive)
GI50 (DMS-273): 64.6 µM (inactive)
GI50 (SK-MEL-2): > 100 µM (inactive)
GI50 (KM12): > 100 µM (inactive)
GI50 (M19-MEL): > 100 µM (inactive)
GI50 (KM-20L2): > 100 µM (inactive)
GI50 (SW-620): > 100 µM (inactive)
GI50 (HCC 2998): > 100 µM (inactive)
GI50 (A549): 92.5 µM (inactive)
GI50 (M14): > 100 µM (inactive)
GI50 (UACC-257): 47.8 µM (inactive)
GI50 (SN12C): 66.1 µM (inactive)
GI50 (OVCAR-8): 9.4 µM (inactive)
GI50 (SNB-75): 20.8 µM (inactive)
GI50 (IGROV-1): 54.3 µM (inactive)
GI50 (K562): > 100 µM (inactive)
GI50 (LOX IMVI): 39.8 µM (inactive)
GI50 (SK-OV-3): 22.6 µM (inactive)
GI50 (Malme-3M): > 100 µM (inactive)
GI50 (ACHN): 44.3 µM (inactive)
GI50 (HOP-62): 20.6 µM (inactive)
GI50 (UO-31): 23.9 µM (inactive)
GI50 (OVCAR-4): 13.6 µM (inactive)
GI50 (SK-MEL-28): > 100 µM (inactive)
GI50 (CAKI-1): > 100 µM (inactive)
GI50 (HT-29): > 100 µM (inactive)
GI50 (RPMI-8226): 23.4 µM (inactive)
GI50 (UACC-62): > 100 µM (inactive)
GI50 (SNB-78): 76.9 µM (inactive)
GI50 (HOP-18): 20.7 µM (inactive)
GI50 (LXFL 529): 33.7 µM (inactive)
GI50 (RXF 631): 99.5 µM (inactive)
GI50 (HL-60): > 100 µM (inactive)
GI50 (EKVX): > 100 µM (inactive)
GI50 (HCT-116): 41.5 µM (inactive)
GI50 (MOLT-4): > 100 µM (inactive)
GI50 (HCT-15): > 100 µM
GI50 (SF-539): 15.1 µM (inactive)
GI50 (A498): 24.9 µM (inactive)
GI50 (OVCAR-3): 34.7 µM (inactive)
GI50 (NCI-H522): 19 µM (inactive)
GI50 (DLD-1): > 100 µM (inactive)
GI50 (CCRF-CEM): > 100 µM (inactive)
GI50 (SNB-19): 14.8 µM (inactive)
GI50 (SF-295): 37 µM (inactive)
GI50 (DMS-114): 27.8 µM (inactive)
GI50 (SF-268): > 100 µM (inactive)
GI50 (COLO 205): > 100 µM (inactive)
GI50 (RXF 393): 31.3 µM (inactive)
GI50 (U-251): 28.8 µM (inactive)
GI50 (SK-MEL-5): 9.59 µM (inactive)

CC1OC(OC23C(=O)CC(C)(O)CC2(O)C=CC2=C3C(=O)c3ccc(C4CC(OC5CCC(OC6CC(O)C(O)C(C)O6)C(C)O5)C(O)C(C)O4)c(O)c3C2=O)CCC1O (centres undefined)
GI50 (786-0): 17.4 µM (inactive) and 15.8 µM (inactive)
GI50 (NCI-H460): 19.4 µM (inactive) and 17.6 µM (inactive)
GI50 (NCI-H226): 19.5 µM (inactive) and 18.6 µM (inactive)
GI50 (SK-MEL-2): 16.7 µM (inactive) and 16.3 µM (inactive)
GI50 (KM12): 17.5 µM (inactive) and 14.4 µM (inactive)
GI50 (TK-10): 21.6 µM (inactive) and 17.7 µM (inactive)
GI50 (OVCAR-5): 19.1 µM (inactive) and 20.6 µM (inactive)
GI50 (KM-20L2): 19.1 µM (inactive) and 19.7 µM (inactive)
GI50 (SW-620): 4.86 µM (inactive) and 3.39 µM (inactive)
GI50 (HCC 2998): 13.9 µM (inactive) and 16.2 µM (inactive)
GI50 (A549): 29.6 µM (inactive) and 25.1 µM (inactive)
GI50 (M14): 18.2 µM (inactive) and 13.8 µM (inactive)
GI50 (UACC-257): 17.9 µM (inactive) and 15.2 µM (inactive)
GI50 (SN12C): 18.3 µM (inactive) and 16.5 µM (inactive)
GI50 (NCI-H23): 16.4 µM (inactive) and 18.5 µM (inactive)
GI50 (SNB-75): 16.3 µM (inactive) and 16.9 µM (inactive)
GI50 (IGROV-1): 16.5 µM (inactive) and 16.4 µM (inactive)
GI50 (K562): 14.5 µM (inactive) and 9.4 µM (inactive)
GI50 (SK-OV-3): 28.1 µM (inactive) and 17.9 µM (inactive)
GI50 (Malme-3M): 3.02 µM (inactive) and 1.57 µM (inactive)
GI50 (ACHN): 17 µM (inactive) and 15.7 µM (inactive)
GI50 (HOP-62): 27 µM (inactive) and 21.5 µM (inactive)
GI50 (UO-31): 18 µM (inactive) and 18.4 µM (inactive)
GI50 (OVCAR-4): 16.4 µM (inactive) and 19.1 µM (inactive)
GI50 (SK-MEL-28): 15.5 µM (inactive) and 14.3 µM (inactive)
GI50 (CAKI-1): 19.1 µM (inactive) and 19.8 µM (inactive)
GI50 (HT-29): 12.8 µM (inactive) and 19.5 µM (inactive)
GI50 (RPMI-8226): 13.2 µM (inactive) and 10 µM (inactive)
GI50 (UACC-62): 13.8 µM (inactive) and 16.3 µM (inactive)
GI50 (SNB-78): 17.3 µM (inactive) and 17.7 µM (inactive)
GI50 (HOP-18): 17.5 µM (inactive) and 17.1 µM (inactive)
GI50 (XF498): 18.2 µM (inactive) and 18.9 µM (inactive)
GI50 (LXFL 529): 15.4 µM (inactive) and 11.5 µM (inactive)
GI50 (RXF 631): 12.9 µM (inactive) and 20.1 µM (inactive)
GI50 (HL-60): 4.42 µM (inactive) and 6.03 µM (inactive)
GI50 (EKVX): 18.7 µM (inactive) and 17.7 µM (inactive)
GI50 (MOLT-4): 5.71 µM (inactive)
GI50 (SF-539): 17.7 µM (inactive) and 17.3 µM (inactive)
GI50 (SR): > 100 µM (inactive)
GI50 (NCI-H522): 1.94 µM (inactive) and 2.05 µM (inactive)
GI50 (DLD-1): 11.1 µM (inactive) and 13.6 µM (inactive)
GI50 (CCRF-CEM): 6.65 µM (inactive)
GI50 (SF-268): 17 µM (inactive) and 16.4 µM (inactive)
GI50 (COLO 205): 3.79 µM (inactive) and 2.33 µM (inactive)
GI50 (U-251): 16 µM (inactive) and 17.1 µM (inactive)
GI50 (SK-MEL-5): 19 µM (inactive) and 16.1 µM (inactive)

From ChEMBL document CHEMBL1201862, “PubChem BioAssay data set” (2004)
